Reference: patent US20220411362A1, “DITERPENOID COMPOUNDS THAT ACT ON PROTEIN KINASE C (PKC)” (K-Gen, Inc., priority 2019, published 2022)
Like-named read-outs stand apart in the source and are kept apart here.

Assay: Pharmacokinetic study, intravenous bolus injection in rats
Type: in vivo
Conditions: Sprague Dawley; for concentration at 0.0167 hour / concentration at 0.0833 hour / concentration at 0.25 hour / concentration at 0.5 hour / concentration at 1 hour / concentration at 2 hour / concentration at 4 hour / concentration at 7 hour / concentration at 24 hour / Vd: plasma, rat; for concentration at 0.0167 hour: 0.0167 hour post dose; for concentration at 0.0167 hour / concentration at 0.0833 hour / concentration at 0.25 hour / concentration at 0.5 hour / concentration at 1 hour / concentration at 2 hour / concentration at 4 hour / concentration at 7 hour / concentration at 24 hour: read-out: Concentration in Rat Plasma after Bolus Injection, Mean; for concentration at 0.0833 hour: 0.0833 hour post dose; for concentration at 0.25 hour: 0.25 hour post dose; for concentration at 0.5 hour: 0.5 hour post dose; for concentration at 1 hour: 1 hour post dose; for concentration at 2 hour: 2 hour post dose; for concentration at 4 hour: 4 hour post dose; for concentration at 7 hour: 7 hour post dose; for concentration at 24 hour: 24 hour post dose; for AUC(0-t) / C0 / MRT inf / clearance / half-life / Vd: rat plasma; for Vd: iv
Experimental: Pharmacokinetic (PK) studies were conducted for compounds described in this disclosure, and the PK study of K101-C1327 administered by intravenous injection in rats is given as an example. Briefly, K101-C1327 was dissolved in a pH 5 buffer solution at the concentrations of 2.0 mg/mL, and diluted to 0.04 and 0.08 mg/mL to achieve the doses of 0.1 and 0.2 mg/kg with a dosing volume of 2.5 mL/kg, respectively. The K101-C1327 dosing solutions were administered via intravenous bolus injection in 3 rats (Sprague Dawley). Plasma samples were taken at 1 minute, 5 minutes, 15 minutes, 30 minutes, 1 hour, 2 hours, 4 hours, 7 hours, and 24 hours. The drug concentrations at each time point were determined by LC-MS. The results of drug concentrations and pharmacokinetic parameters are presented in the Table 6 and Table 7, respectively, below.

CC1=C[C@H]2[C@@]3(O)[C@H](C)C[C@]4(OC(=O)[C@@H](N)CC5CCCCC5)[C@H]([C@@H]3C=C(CO)C[C@]2(O)C1=O)C4(C)C [Compound K101-C1327]
concentration at 0.0167 hour (dose 0.1 mg/kg): 216 ng/mL | concentration at 0.0833 hour (dose 0.1 mg/kg): 49.2 ng/mL | concentration at 0.25 hour (dose 0.1 mg/kg): 28.7 ng/mL | concentration at 0.5 hour (dose 0.1 mg/kg): 19.4 ng/mL | concentration at 1 hour (dose 0.1 mg/kg): 14.6 ng/mL | concentration at 2 hour (dose 0.1 mg/kg): 5 ng/mL | concentration at 4 hour (dose 0.1 mg/kg): 1 ng/mL | concentration at 7 hour (dose 0.1 mg/kg): < 1 ng/mL | concentration at 24 hour (dose 0.1 mg/kg): < 1 ng/mL | concentration at 0.0167 hour (dose 0.2 mg/kg): 334 ng/mL | concentration at 0.0833 hour (dose 0.2 mg/kg): 102 ng/mL | concentration at 0.25 hour (dose 0.2 mg/kg): 65 ng/mL | concentration at 0.5 hour (dose 0.2 mg/kg): 43.6 ng/mL | concentration at 1 hour (dose 0.2 mg/kg): 37.6 ng/mL | concentration at 2 hour (dose 0.2 mg/kg): 29.1 ng/mL | concentration at 4 hour (dose 0.2 mg/kg): 6 ng/mL | concentration at 7 hour (dose 0.2 mg/kg): < 1 ng/mL | concentration at 24 hour (dose 0.2 mg/kg): < 1 ng/mL | AUC(0-t) (0.1 mg/kg): 48.3 ng·h/mL | C0 (0.1 mg/kg): 314 ng/mL | MRT inf (0.1 mg/kg): 0.873 h | clearance (0.1 mg/kg): 32.9 mL/min/kg | half-life (0.1 mg/kg): 0.857 h | AUC(0-t) (0.2 mg/kg): 119 ng·h/mL | C0 (0.2 mg/kg): 450 ng/mL | MRT inf (0.2 mg/kg): 2.93 h | clearance (0.2 mg/kg): 21.5 mL/min/kg | half-life (0.2 mg/kg): 2.29 h | Vd (0.1 mg/kg, 0.1 mg/kg, read-out: Vss): 1.73 L/kg | Vd (0.1 mg/kg, 0.1 mg/kg, read-out: Vz): 2.44 L/kg | Vd (0.2 mg/kg, 0.2 mg/kg, read-out: Vss): 2.77 L/kg | Vd (0.2 mg/kg, 0.2 mg/kg, read-out: Vz): 3.25 L/kg
